From EP4417202A1, “ANTI-CANCER ACTION OF BAG1-SELECTIVE IMIDAZOPYRIDINE COMPOUNDS IN STEROID HORMONE RECEPTOR-POSITIVE BREAST AND PROSTATE CANCER” (Karlsruher Institut für Technologie, priority 2023, dated 2024) come the findings set out here.

Molecules are shown by their SMILES.

The test system of experiment [1] is TRMCF-7 cells (tamoxifen resistant MCF-7 cells). Briefly: MTT cell viability assay. The format is cell-based. As to conditions: 48 h. How it is done:
[…] Cells transfected with siRNA were incubated for 72 h after X15695 addition. Thereafter, the medium was exchanged for a fresh medium containing 0.5 mg/ml MTT (Sigma-Aldrich) and incubated at 37°C for 1 h to 4 h (depending on cell line) until intracellular purple formazan crystals were formed. The MTT solution was removed, and the purple crystals were dissolved in isopropanol and the optical absorbance at 595 nm was recorded using SpectraMax iD3, Molecular Devices, San Jose, CA, USA.
Background: Tetrazolium dyes change colour on reduction, which living cells bring about.

For the next experiment, the system named is ERα. The protocol: For Western blotting, cells were lysed in NP-40 lysis buffer (1% NP-40, 50 mM Tris-HCl, pH 8.0, 150 mM NaCl, 5 mM EDTA) or 1× passive lysis buffer (Promega, Germany) for 15 min on ice. Cell debris was removed by centrifugation at 13,000 rpm for 10 min and used for SDS-polyacrylamide gel electrophoresis (PAGE) and Western blotting.
Western Blotting was carried out using standard protocols with antibodies: p53 (clone DO1), p53 (Sp5, Thermo Fisher Scientific Karlsruhe, Germany), Mdm2 (4B2, Abcam, Cambridge, UK). […] Secondary goat anti-mouse and goat anti-rabbit antibodies were purchased from DAKO (Bollschweil, Germany).

A further experiment concerns p53. As to the kind of experiment: Immunofluorescence assay, cellular localization of p53. The format is cell-based. To be noted: MCF-7 cells, 1 µM. How it is done: For immunofluorescence assay, MCF-7, T47D, 22Rv.1, LAPC-4 and LNCaP cells (10^4 each) were seeded on coverslips in a 24-well plate and the desired treatment applied. After three times washing with PBS, cells were fixed with 4% paraformaldehyde solution for 10 min at room temperature. Next, the cells were washed three times with PBS and permeabilized with 0.5% Triton X-100 for 10 min at room temperature. Following three additional washing steps with PBS, cells were treated with 5% bovine serum albumin (w/v) for 1 h at room temperature and subjected to overnight incubation with the primary antibody p53 (DO1 clone or Sp5, Thermo Fisher Scientific), ERα (F-10, Santa-Cruz) or mortalin (D-9, Santa-Cruz) and then washed three times with PBS followed by incubation with goat anti-mouse IgG, Alexa Fluor™ 488 antibody and/or goat anti-rabbit IgG, Alexa Fluor™ 546 antibody (Thermo Fisher Scientific) for 1 h at room temperature in the dark. All subsequent steps were performed in the dark. Cells were washed 3 times with PBS and stained with 0.1 µg/ml DAPI (Thermo Fisher Scientific) solution at 1:10,000 (v/v) dilution for 15 min at room temperature. After three times washing with PBS the cells were mounted in Mowiol® 4-88 on microscope slides and observed by laser-scanning confocal microscopy (Confocal Microscope platform […]6-LSM900, […], Germany).

The next experiment has as its target T1, BAG1 (Homo sapiens, UniProt Q99933).
T1 construct: endogenous in cells; host or cells: MCF-7
As to the kind of experiment: Cellular thermal shift assay (Tagg-CETSA) in MCF-7 cells. The format is binding. To be noted: 1 µM, 1 h. How it is done:
(§1) To determine the aggregation temperature (Tagg-CETSA), MCF-7 cells were harvested and resuspended at a concentration of 2×10^6 cells/ml. X15695 (1 µM) or the same volume of DMSO were added to the cell suspension and incubated for 1 h at 37°C. Cells were washed and resuspend with phosphate-buffered saline (PBS) to a final concentration of 3×10^7 cells/ml. The cell suspension was evenly distributed into different tubes and treated with a gradient of temperature ranging from 37 to 62°C for 3 min. Cells were incubated 3 min at room temperature to ensure a uniform temperature between different tubes and then snap frozen with liquid nitrogen. Cells were lysed by freeze/thaw cycles with liquid nitrogen and centrifuged at 20,000 g for 20 min. Stable BAG proteins present in the supernatant were quantified by Western blotting using an anti-BAG1, 2, 3, and 5 antibodies and β-actin antibody for loading control.

The target of the next experiment is T2, BAG1M (Homo sapiens, UniProt Q99933).
T2 construct: endogenous in cells; host or cells: MCF-7
T2 sequence (Q99933 72-345): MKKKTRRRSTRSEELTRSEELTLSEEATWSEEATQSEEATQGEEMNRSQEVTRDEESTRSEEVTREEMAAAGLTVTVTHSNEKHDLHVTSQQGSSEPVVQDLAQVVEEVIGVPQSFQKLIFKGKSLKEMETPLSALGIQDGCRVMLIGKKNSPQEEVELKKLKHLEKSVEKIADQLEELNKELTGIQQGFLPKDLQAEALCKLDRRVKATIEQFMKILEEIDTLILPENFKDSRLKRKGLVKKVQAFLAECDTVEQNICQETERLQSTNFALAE
The description is as above. The format is binding. As to conditions: 1 µM, 1 h. The protocol:
as §1

The next experiment deals with ERα response genes. As to the kind of experiment: Quantitative RT-PCR of ERα response genes in MCF-7 and T47D cells. The format is cell-based. As to conditions: 1 µM, 10 nM E2, 16 h. How it is done: MCF-7, T47D and LNCaP cells (5×10^4 each) were seeded in 6-well plates and cultured with hormone-depleted medium for 3 days. Subsequently, the MCF-7 and T47D cells were treated with 10 nM 17-β-estradiol (E2) or dihydrotestosterone (DHT) for the LNCaP cells, 1 µM) X15695 (for the MCF-7 and T47D cells) or 5 µM) for LNCaP cells and X15695 together with E2 or DHT. A 1 h pre-treatment with X15695 was performed prior to treatment with E2 or DHT for 16 h. RNA was extracted using innuPREP RNA mini Kit 2.0 (Analytic Jena, Berlin, Germany). 1 µg RNA per sample was used as input material for the RNA sample preparations. Sequencing libraries were generated using NEBNext® UltraTM RNA Library Prep Kit for Illumina® (NEB, USA) following the manufacturer's recommendations and index codes were added to attribute sequences to each sample. The clustering of the index-coded samples was performed on a cBot Cluster Generation System using PE Cluster Kit cBot-HS (Illumina) according to the manufacturer's instructions. After cluster generation, the library preparations were sequenced on an Illumina platform and paired-end reads were generated. Library preparation and sequencing were carried out by Novogene Europe, Cambridge, UK. […] Select target genes were analyzed by RT-PCR experiments with RNA from the samples used for the RNA-seq analysis. […]

T1 sequence (Q99933 116-345): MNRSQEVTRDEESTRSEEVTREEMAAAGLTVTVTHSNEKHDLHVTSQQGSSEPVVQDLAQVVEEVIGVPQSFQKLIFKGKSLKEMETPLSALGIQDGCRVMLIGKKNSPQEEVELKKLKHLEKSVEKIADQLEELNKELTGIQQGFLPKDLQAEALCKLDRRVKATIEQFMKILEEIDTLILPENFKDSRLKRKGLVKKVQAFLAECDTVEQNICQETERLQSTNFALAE

Take `Fc1ccc(-c2cn3cc(C(F)(F)F)cc(Cl)c3n2)cc1` [Compound X15695, 8-Chloro-2-(4-fluorophenyl)-6-(trifluoromethyl)imidazo[1,2-a]pyridine]: the inhibition of viability entry in experiment [1] is given as “comparable activities”. Besides, the “ERα downregulation over time” value in the experiment with ERα (MCF-7 cells, 1 µM, time course) was “rather slow but more sustained downregulation lasing over 24 to 48 h”. Besides, in the experiment with ERα (MCF-7 cells, 8 h), the “concentration sufficient to downregulate ERα” value is recorded as at most 1 nM. Also, the ERα level entry with ERα (immunoblotting, MCF-7 and T47D cells, 48 h) was “dose-dependently decreased ERα level”. Besides, the “cellular localization of p53” value with p53 is “accumulated in the nucleus as early as 8 h after X15695 treatment”. The “increase of aggregation temperature (Tagg) over vehicle” value on BAG1 was 3 °C; at BAG1M, 1-2 °C. For the same molecule, the E2-mediated gene expression result with ERα response genes is recorded as “downregulation of E2-mediated gene expression”.
